Results published in patent publication US5270310A, “N-aminoalkyl amide inhibitors of protein kinase C” (Sphinx Pharmaceuticals Corporation, priority 1991, dated 1993).

What was measured:
[1] = test system: MCF-7/ADR adriamycin resistant line of MCF-7 cells; assay: Human Tumor Cell Growth Inhibition, MCF-7/ADR; type: cell-based; conditions: NCI/ADR-RES, 3H-thymidine incorporation, value without parentheses (not salt)
Source text: MCF-7 a human breast tumor cell line and MCF-7/ADR an adriamycin resistant line of MCF-7 cells were obtained from the National Cancer Institute, Frederick, Md. CEM cells (ATCC accession number CCL 119) were obtained from the American Type Culture Collection, Rockville, Md. Human tumor cells are trypsinized (0.05% trypsin, GIBCO), counted with a hemacytometer and seeded at a concentration of 10,000 cells/well in a 96 well microtiter plate. After allowing cells to attach to the surface overnight, the culture medium is aspirated and replaced with 100 μl of fresh medium. Test agents are diluted to determine dose response at 2× final concentration and added in quadruplicate at 100 μl/well to bring the total volume of each well to 200 μl. The microtiter plate is then incubated at 37° C. 5% CO2 overnight (18-24 hrs) before ^3 H-thymidine is added at a concentration of 0.5 μCi/well in 50 μl culture medium. The plate is incubated again for 4 hrs under the same conditions as above. Supernatant is then aspirated and 50 μl trypsin (0.05%, GIBCO) is added to each well. Cells are checked microscopically to determine detachment from surfaces, and plates are then harvested with a cell harvester (PHD, Cambridge Technology, Inc.) Filter papers corresponding to wells are placed in scintillation vials and counted to determine the amount of ^3 H-thymidine incorporated by the cells. […]

[2] = molecular target: T1, protein kinase (PKA), catalytic subunit (Homo sapiens, UniProt P17612); assay: cAMP-Dependent Protein Kinase (PKA) Assay; type: biochemical; conditions: free base
T1 construct: purchased Sigma Chemical Company, St. Louis, Mo
Method: Compound found to be inhibitors of protein kinase C are tested for inhibitory activity against protein kinase (PKA). This enzyme, like protein kinase C, plays an important role in cell-cell communication and is activated by a second messenger, cAMP. Secondary screening against PKA is useful for ascertaining the selectivity of the compounds of the invention. The catalytic subunit of PKA (Sigma Chemical Company, St. Louis, Mo.) is mixed with buffer before addition of the inhibitor in dimethylsulfoxide (DMSO). The assay is started by the addition of 32P-ATP and the reaction is allowed to proceed for 10 min before stopping with 25% trichloroacetic acid (TCA) and 1.0 mg/ml bovine serum albumin (BSA). The phosphorylated protein is isolated by filtration and the radioactivity is counted in a beta scintillation counter.

[3] = molecular target: protein kinase C (PKC); assay: Protein Kinase C Inhibition; type: biochemical, rat
Method: The protein kinase C (PKC) assay is designed to duplicate the in vivo conditions required for protein kinase C function. Therefore, pH, salt and cofactor concentrations are similar to physiologic levels. Histone H1 (lysine rich) is used in the assay as the phosphorylation acceptor protein because it is readily available and serves as a good substrate for protein kinase C. The enzyme is prepared from rat brain and is purified to apparent homogeneity as determined by a single band on silver stained SDS-polyacrylamide. Studies on the mechanism of regulation of protein kinase C by phospholipids, DAG and Ca^+2 have been hampered by the physical properties of the lipid cofactors. In the screening assay, phosphatidylserine (PS) and DAG are co-sonicated to form unilamellar and multilamellar vesicles. The concentration of lipids in the assay are suboptimal to maximize the detection potential of the assay for inhibitors. […] The assay is started with the addition of enzyme and stopped after 10 min by the addition of 25% trichloroacetic acid (TCA) and 1.0 mg/ml bovine serum albumin (BSA). The radioactive histone product is retained and washed on glass fiber filters that allow the unreacted ^32 P-ATP to pass through. The amount of phosphorylation is determined by the radioactivity measured in a scintillation counter. Controls are included in every assay to measure background activity in the absence of enzyme, activity in the absence of lipids and the maximum enzyme activity with saturating levels of the activator lipids.
Both the free base and the HCl salt were tested.

[4] = test system: MCF-7 human breast tumor cell line; assay: Human Tumor Cell Growth Inhibition, MCF-7; type: cell-based; conditions: Homo sapiens, MCF7; 3H-thymidine incorporation; value outside parentheses (not salt)
Method: MCF-7 a human breast tumor cell line and MCF-7/ADR an adriamycin resistant line of MCF-7 cells were obtained from the National Cancer Institute, Frederick, Md. […] Human tumor cells are trypsinized (0.05% trypsin, GIBCO), counted with a hemacytometer and seeded at a concentration of 10,000 cells/well in a 96 well microtiter plate. After allowing cells to attach to the surface overnight, the culture medium is aspirated and replaced with 100 μl of fresh medium. Test agents are diluted to determine dose response at 2× final concentration and added in quadruplicate at 100 μl/well to bring the total volume of each well to 200 μl. The microtiter plate is then incubated at 37° C. 5% CO2 overnight (18-24 hrs) before ^3 H-thymidine is added at a concentration of 0.5 μCi/well in 50 μl culture medium. The plate is incubated again for 4 hrs under the same conditions as above. Supernatant is then aspirated and 50 μl trypsin (0.05%, GIBCO) is added to each well. Cells are checked microscopically to determine detachment from surfaces, and plates are then harvested with a cell harvester (PHD, Cambridge Technology, Inc.) Filter papers corresponding to wells are placed in scintillation vials and counted to determine the amount of ^3 H-thymidine incorporated by the cells. Test agent response is compared to a positive control of cell wells with culture media only to determine the IC50. IC50 is the concentration of test compound required to inhibit fifty per cent of the incorporation of ^3 H-thymidine into proliferating cells not exposed to test agent. Uptake of ^3 H-thymidine is a standard test for measuring the metabolism of cells. Cells which are actively proliferating take up ^3 H-thymidine, whereas cells that are not proliferating take up ^3 H-thymidine at much slower rates or not at all. Test agents that inhibit the uptake of ^3 H-thymidine thus slow the growth of cells.

[5] = test system: PMA-stimulated neutrophils; assay: Neutrophil Superoxide Anion (O2^-) Release Assay; type: cell-based, human; conditions: Homo sapiens, Neutrophil; PMA-stimulated; value outside parentheses (not salt); read-out: Neutrophil Superoxide Release IC50
Method: Neutrophils are isolated form whole blood collected from human volunteers. All reagent materials are obtained from Sigma Chemical Company with the exception of isotonic saline (Travenol Laboratories, Inc., Deerfield, Ill.) and lymphocyte separation medium (Organon Teknika, Durham, N.C.).
Whole blood is drawn and mixed with sodium heparin (final conc. 10 units/ml) to prevent clotting. An equal volume of dextran (3.0%) in isotonic saline is added, mixed, and allowed to settle for 30 min to bind red blood cells (RBC). Supernatant is removed, underlayered with lymphocyte separation medium and centrifuged for 40 min at 400 xg in a centrifuge (Beckman GPR, Norcross, Ga). The pellet is alternately resuspended in 0.2% and 1.6% NaCl to lyse RBCs before washing with Hank's Balanced Salt Solution (HBSS). The washed pellet is resuspended in 10 mL HBSS and placed on ice before counting on a hemacytometer.
The neutrophil cell concentration is adjusted to 2×10^6 cells/ml with HBSS before adding 0.8 mL cells to 12×75 mm polypropylene test tubes (Fisher Scientific). Test agents are diluted to determine dose response and added at 10× final concentration at a volume of 0.1 mL/tube in duplicate. Then 10× concentrations of cytochrome C (15 mg/ml) with catalase (3000 units/ml) either alone or containing 25 ng/ml phorbol 12-myristate 13-acetate (PMA) are added at a volume of 0.1 mL/tube and incubated at 37° C. for 30 min before stopping the reaction by placing tubes on ice. Tubes are then centrifuged at 900 xg for 10 min, 0.5 mL supernatant is removed and added to 0.5 mL H2 O in a microcuvette. Optical density (OD) of cytochrome c is read in a spectrophotometer (Shimadzu) at 550 nm. The ΔOD of cytochrome c is obtained between PMA-stimulated and non-stimulated tubes, and the dose responses of the test agents are compared to the positive controls (which contain HBSS in place of test agents). PMA stimulates O2^- production which reduces cytochrome c. Reducing cytochrome c increases its absorbance, and the change in OD of cytochrome c is proportional to the amount of O2^- produced by PMA stimulation. Inhibition of the O2^- burst by test compounds of the invention is seen as a reduction in the change in optical density. Inhibition is expressed as IC50 μM and is the amount of test compound that will inhibit fifty percent of the PMA-stimulated respiratory outburst, i.e. O2^- production.

[6] = test system: NHEK cells (proliferating keratinocytes); assay: Human Keratinocyte Inhibition; type: cell-based; conditions: 3H-thymidine incorporation, value outside parentheses (not salt), read-out: NHEK IC50
Method: Proliferating keratinocytes (NHEK cells purchased from Clonetics, Inc., San Diego, Calif.) in second passage were grown in Keratinocyte Growth Medium (KGM) (Clonetics, Inc.) Cells are trypsinized (0.025% trypsin, Clonetics), counted with a hemacytometer (Scientific Products), and seeded at a concentration of 2,500 cells/well in a 96 well microtiter plate. After allowing cells to attach to the surface overnight, the culture medium is aspirated and replaced with 100 μl of fresh KGM. […] IC50 is the concentration of test compound required to inhibit fifty percent of the incorporation of ^3 H-thymidine into proliferating cells not exposed to test agent.

With CCCCCCCCCCCCCCCC(=O)NCCCN1CCCCC1C (stereo not drawn) [Compound 11, 2-Methyl-l-[3-(N-hexadecanoyl)aminopropyl]piperidine] the IC50 [1] was 2.6 µM, the IC50 [2] was > 217 µM and the IC50 ([3]; HCl salt) was 66 µM. The IC50 ([3]; free base) was 130 µM, the IC50 [4] was 4.1 µM and the IC50 [5] was 1.8 µM.

With CCCCCCCCCCCCCCCC(=O)N(C)CCC[N+]1(C)CCOCC1 [Compound 16, 4-[N-hexadecanoyl-N-methyl-4-(3-aminopropyl)]-4-methylmorpholimium iodide] the IC50 [1] was > 25 µM, the IC50 [2] was 131 µM and the IC50 ([3]; free base) was 22 µM. For the same compound, the IC50 [4] was 19.3 µM and the IC50 [6] was 1.4 µM.
